Assay results: patent publication US20150274777A1, “KETOAMIDE IMMUNOPROTEASOME INHIBITORS” (HOFFMANN-LA ROCHE INC., priority 2012, published 2015)

Assays:
[1] = system: mouse CAIA and CIA arthritis models; conditions: cited from earlier work
[2] = system: DSS-induced colitis model; conditions: DSS-induced colitis model in mice; cited from earlier work
[3] = system: MRL/lpr lupus-prone mice model; conditions: cited from earlier work
β5i = target: T1, β5i (Homo sapiens, UniProt P20618+P28062); assay: Cell-Based Proteasome Activity/Selectivity Assay (Ramos cells), substrate (ANW)2Rh110; conditions: highest concentration tested 20 μM, read-out: Ic50 ramos:ac-(anw)2-r110
T1 construct: protease activity associated with the proteasome complex in cultured cells; endogenous in cells; host or cells: Ramos cells
Summary of the method: (§1)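 Ramos cells (5×10^4/well in DPBS) were treated with 4-fold compound dilutions (top 20 μM) for 30 min at 37 °C. A 2× mix of 0.025% digitonin, 20 μM of each Rh110 substrate and 0.5 M sucrose was added, then incubated 120 min at room temperature. Rh110 fluorescence was read at 500/519 nm.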

β2c/2i = assay: Cell-Based Proteasome Activity/Selectivity Assay (Ramos cells), substrate (KQL)2Rh110; conditions: highest concentration tested 20 μM
Summary of the method: as §1

[4] = system: IP10 level in PBMCs stimulated with CpG Type A; assay: PBMC IP-10 Assay; assay type: cell-based; conditions: CpG Type A 2.5 μM
Summary of the method: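 Human PBMCs (~2×10^5/well) preincubated 60 min at 37° C. with titrated compound (1% DMSO final), then stimulated with CpG Type A (ODN 2216) at 2.5 μM final overnight. Supernatant IP-10 quantified by AlphaLISA; viability of remaining cells by ATP luminescence.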

β5c = target: T2, β5c (Homo sapiens, UniProt P20618+P28074); assay: Cell-Based Proteasome Activity/Selectivity Assay (Ramos cells), substrate (WLA)2Rh110; conditions: highest concentration tested 20 μM
T2 construct: protease activity associated with the proteasome complex in cultured cells; endogenous in cells; host or cells: Ramos cells
Summary of the method: as §1

β1i = target: T3, β1i (Homo sapiens, UniProt P28065+P40306); assay: Cell-Based Proteasome Activity/Selectivity Assay (Ramos cells), substrate (PAL)2Rh110; conditions: highest concentration tested 20 μM
T3 construct: protease activity associated with the proteasome complex in cultured cells; endogenous in cells; host or cells: Ramos cells
Summary of the method: as §1

β1c = target: T4, β1c (Homo sapiens, UniProt P28072+Q99436); assay: Cell-Based Proteasome Activity/Selectivity Assay (Ramos cells), substrate (LLE)2 Rh110; conditions: highest concentration tested 20 μM
T4 construct: protease activity associated with the proteasome complex in cultured cells; endogenous in cells; host or cells: Ramos cells
Summary of the method: as §1

| IC50 (β5i) | IC50 (β2c/2i) | IC50 (β5c) | IC50 (β1i) | IC50 (β1c) | SMILES | disease score [1] | inflammation and tissue destruction [2] | disease progression [3] | plasma cells numbers and levels of anti-dsDNA IgG [3] | EC50 [4] |
| --- | --- | --- | --- | --- | --- | --- | --- | --- | --- | --- |
|  |  |  |  |  | COc1ccc(C[C@H](NC(=O)[C@H](C)NC(=O)CN2CCOCC2)C(=O)N[C@@H](Cc2ccccc2)C(=O)[C@@]2(C)CO2)cc1 [PR-957] | significantly decreased | reduced | prevented | reduced |  |
| 0.176 µM | > 20 µM | 5.77 µM | 8.92 µM | > 20 µM | C[C@H](NC(=O)c1cc(C(F)(F)F)nn1C)C(=O)N[C@@H](Cc1ccccc1)C(=O)N[C@@H](Cc1ccccc1)C(=O)C(=O)NCc1ccccc1 [Example 55, 2-Methyl-5-trifluoromethyl-2H-pyrazole-3-carboxylic acid {(S)-1-[(S)-1-((S)-1-benzyl-2-benzylcarbamoyl-2-oxo-ethylcarbamoyl)-2-phenyl-ethylcarbamoyl]-ethyl}-amide] |  |  |  |  | 3.89 µM |
